According to patent US9062048B2, “Cyclohexyl-azetidinyl antagonists of CCR2” (Janssen Pharmaceutica NV, priority 2010, dated 2015):
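Note: THP-1 is a human monocytic cell line, and nonspecific binding was defined with 1 µM unlabeled MCP-1.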

These compounds were tested against CCR2 (Homo sapiens (Human), UniProt P41597) (assay: MCP-1 Receptor Binding Assay in THP-1 Cells). Settings: 0.5 nM 125I labeled MCP-1, 2 hours at 30° C., read-out: Inhibition of MCP-1 Binding IC50 MCP1B.
Chain of CCR2 (P41597 whole entry): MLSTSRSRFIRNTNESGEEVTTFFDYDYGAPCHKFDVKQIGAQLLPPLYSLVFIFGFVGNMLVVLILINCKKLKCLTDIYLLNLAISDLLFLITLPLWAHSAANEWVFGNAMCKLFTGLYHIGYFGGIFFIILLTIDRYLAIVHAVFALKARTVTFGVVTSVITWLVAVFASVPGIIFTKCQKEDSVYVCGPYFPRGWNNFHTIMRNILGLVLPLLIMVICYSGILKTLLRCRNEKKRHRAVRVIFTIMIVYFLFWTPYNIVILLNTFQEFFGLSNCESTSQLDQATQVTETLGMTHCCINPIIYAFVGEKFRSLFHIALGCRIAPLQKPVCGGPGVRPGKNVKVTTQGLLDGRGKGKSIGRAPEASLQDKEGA
For `CCC(NC(=O)OC)[C@H]1CC[C@@H](N2CC(NC(=O)CNc3ncnc4ccc(C(F)(F)F)cc34)C2)CC1` (stereo partly drawn) [Example 144, methyl ((S)-1-((1s,4R)-4-(3-(2-((6-(trifluoromethyl)quinazolin-4-yl)amino)acetamido)azetidin-1-yl)cyclohexyl)propyl)carbamate], the IC50 was 640 nM.
`CC(C)C(O)[C@H]1CC[C@@H](N2CC(NC(=O)CNc3ncnc4ccc(C(F)(F)F)cc34)C2)CC1` (stereo partly drawn) [Example 7, N-(1-((1S,4s)-4-(1-hydroxy-2-methylpropyl)cyclohexyl)azetidin-3-yl)-2-((6-(trifluoromethyl)quinazolin-4-yl)amino)acetamide] gave an IC50 of 9 nM.
With `O=C(CNc1ncnc2ccc(C(F)(F)F)cc12)NC1CN([C@H]2CC[C@@H](C3COC(=O)N3)CC2)C1` (stereo partly drawn) [Example 16, N-(1-((1R,4s)-4-(2-oxooxazolidin-4-yl)cyclohexyl)azetidin-3-yl)-2-((6-(trifluoromethyl)quinazolin-4-yl)amino)acetamide] the IC50 was 35 nM.
Compound `CC[C@@H](O)[C@H]1CC[C@H](N2CC(NC(=O)CNc3nncc4ccc(C(F)(F)F)cc34)C2)CC1` [Example 154, N-(1-((1R,4r)-4-((R)-1-hydroxypropyl)cyclohexyl)azetidin-3-yl)-2-((7-(trifluoromethyl)phthalazin-1-yl)amino)acetamide] has an IC50 of 6080 nM.
With `N#Cc1cc(NCC(=O)N[C@H]2C[C@@H](N3CCC(O)(c4cncs4)CC3)C2)c2cc(C(F)(F)F)ccc2n1` [Example 163, 2-((2-cyano-6-(trifluoromethyl)quinolin-4-yl)amino)-N-((1s,3s)-3-(4-hydroxy-4-(thiazol-5-yl)piperidin-1-yl)cyclobutyl)acetamide] the IC50 was 2600 nM.
In the case of `O=C(CNc1ncnc2ccc(C(F)(F)F)cc12)NC1CN([C@H]2CC[C@@H](CNC(=O)C(F)(F)F)CC2)C1` [Example 112], the IC50 is reported as 81 nM.
Compound `O=C(CNc1ncnc2ccc(C(F)(F)F)cc12)NC1CN(C2CCC([C@@H](O)C3CC3)CC2)C1` (single isomer, unassigned; (+)) [(+) 6] has an IC50 of 25 nM.
In the case of `O=C(CNc1ncnc2ccc(C(F)(F)F)cc12)NC1CN([C@H]2CC[C@@H](C3CCCC(=O)N3)CC2)C1` (stereo partly drawn) [Example 13, N-(1-((1S,4s)-4-(6-oxopiperidin-2-yl)cyclohexyl)azetidin-3-yl)-2-((6-(trifluoromethyl)quinazolin-4-yl)amino)acetamide], the IC50 is reported as 10 nM.
Work on `CC(C)[C@@H](O)[C@H]1CC[C@@H](N2CC(NC(=O)CNc3nncc4ccc(C(F)(F)F)cc34)C2)CC1` (racemic) [Example 159, N-(1-((1R,4s)-4-((S)-1-hydroxy-2-methylpropyl)cyclohexyl)azetidin-3-yl)-2-((7-(trifluoromethyl)phthalazin-1-yl)amino)acetamide] yielded an IC50 of 8290 nM.
In the case of `CCC(NC(N)=O)[C@H]1CC[C@@H](N2CC(NC(=O)CNc3ncnc4ccc(C(F)(F)F)cc34)C2)CC1` (stereo partly drawn) [Example 141, 2((6-(trifluoromethyl)quinazolin-4-yl)amino)-N-(1-((1R,4s)-4-((S)-1-ureidopropyl)cyclohexyl)azetidin-3-yl)acetamide], the IC50 is reported as 250 nM.
For `CCCN(C(=O)OCc1ccccc1)[C@H]1CC[C@@H](N2CC(NC(=O)CNc3ncnc4ccc(C(F)(F)F)cc34)C2)CC1` [Example 48, benzyl propyl((1s,4s)-4-(3-(2-((6-(trifluoromethyl)quinazolin-4-yl)amino)acetamido)azetidin-1-yl)cyclohexyl)carbamate], the IC50 was 300 nM.
`CCC(NC(=O)C(F)(F)F)[C@H]1CC[C@@H](N2CC(NC(=O)CNc3ncnc4ccc(C(F)(F)F)cc34)C2)CC1` (stereo partly drawn) [Example 135, 2,2,2-trifluoro-N—((S)-1-((1s,4R)-4-(3-(2-((6-(trifluoromethyl)quinazolin-4-yl)amino)acetamido)azetidin-1-yl)cyclohexyl)propyl)acetamide] was tested, and the IC50 was 2980 nM.
For `CCC(OC)[C@H]1CC[C@@H](N2CC(NC(=O)CNc3ncnc4ccc(C(F)(F)F)cc34)C2)CC1` (some centres unmarked) [Example 120, N-(1-((1s,4s)-4-(1-methoxypropyl)cyclohexyl)azetidin-3-yl)-2-((6-(trifluoromethyl)quinazolin-4-yl)amino)acetamide], the IC50 was 83 nM.
`C=CCC(O)[C@H]1CC[C@@H](N2CC(NC(=O)CNc3ncnc4ccc(C(F)(F)F)cc34)C2)CC1` (stereo partly drawn) [Example 91, N-(1-((1S,4s)-4-(1-hydroxybut-3-en-1-yl)cyclohexyl)azetidin-3-yl)-2-((6-(trifluoromethyl)quinazolin-4-yl)amino)acetamide] showed an IC50 of 16 nM.
`O=C(CNc1ncnc2ccc(C(F)(F)F)cc12)NC1CN([C@H]2CC[C@@H](CO)CC2)C1` [Example 109, N-(1-((1s,4s)-4-(hydroxymethyl)cyclohexyl)azetidin-3-yl)-2-((6-(trifluoromethyl)quinazolin-4-yl)amino)acetamide] showed an IC50 of 58 nM.
Compound `O=C(CNc1ncnc2ccc(C(F)(F)F)cc12)NC1CN([C@H]2CC[C@@H](n3ccccc3=O)CC2)C1` [Example 55, N-(1-((1s,4s)-4-(2-oxopyridin-1-(2H)-yl)cyclohexyl)azetidin-3-yl)-2-((6-(trifluoromethyl)quinazolin-4-yl)amino)acetamide] has an IC50 of 15 nM.
In the case of `CC(C)(O)[C@H]1CC[C@@H](N2CC(NC(=O)CNc3ncnc4ccc(C(F)(F)F)cc34)C2)CC1` [Example 29, N-(1-((1s,4s)-4-(2-hydroxypropan-2-yl)cyclohexyl)azetidin-3-yl)-2-((6-(trifluoromethyl)quinazolin-4-yl)amino)acetamide], the IC50 is reported as 33 nM.
Work on `O=C(CNc1ncnc2ccc(C(F)(F)F)cc12)NC1CN(C2CCC(N3CCCC3=O)CC2)C1` (centres unmarked) [Example 40, N-(1-(4-(2-oxopyrrolidin-1-yl)cyclohexyl)azetidin-3-yl)-2-((6-(trifluoromethyl)quinazolin-4-yl)amino)acetamide] yielded an IC50 of 78 nM.
`CC1CCC(N2CC(NC(=O)CNc3ncnc4ccc(C(F)(F)F)cc34)C2)CC1` (centres unmarked) [Example 119, N-(1-(4-methylcyclohexyl)azetidin-3-yl)-2-((6-(trifluoromethyl)quinazolin-4-yl)amino)acetamide] showed an IC50 of 82 nM.
Work on `CCC(NC(=O)OC)[C@H]1CC[C@@H](N2CC(NC(=O)CNc3ncnc4ccc(C(F)(F)F)cc34)C2)CC1` (stereo partly drawn) [Example 104, methyl (−1-((1s,4S)-4-(3-(2-((6-(trifluoromethyl)quinazolin-4-yl)amino)acetamido)azetidin-1-yl)cyclohexyl)propyl)carbamate] yielded an IC50 of 644 nM.
`O=C(CNc1ncnc2ccc(C(F)(F)F)cc12)NC1CN([C@H]2CC[C@@H](N3CCOCC3)CC2)C1` [Example 132, N-(1-((1s,4s)-4-morpholinocyclohexyl)azetidin-3-yl)-2-((6-(trifluoromethyl)quinazolin-4-yl)amino)acetamide] was tested, and the IC50 was 190 nM.
`CN(CC(=O)NC1CN([C@H]2CC[C@@](O)(c3nccs3)CC2)C1)c1ncnc2ccc(C(F)(F)F)cc12` [Example 64, N-(1-((1r,4r)-4-hydroxy-4-(thiazol-2-yl)cyclohexyl)azetidin-3-yl)-2-(methyl(6-(trifluoromethyl)quinazolin-4-yl)amino)acetamide] showed an IC50 of 830 nM.
For `CN(C(=O)OCc1ccccc1)[C@H]1CC[C@@H](N2CC(NC(=O)CNc3ncnc4ccc(C(F)(F)F)cc34)C2)CC1` [Example 42], the IC50 was 210 nM.
